We go through ten molecules from US7923465B2, “Cannabinoid receptor ligands, pharmaceutical compositions containing them, and process for their preparation” (priority 2005, dated 2011).

Each structure is given as a SMILES string. Read-outs that look alike come from different tables or passages of the source.

The target of data set [1] is hCB2 (Homo sapiens, UniProt P34972). Briefly: In vitro binding assay using hCB2-CHO membranes, [3H]-CP-55,940 displacement (Protocol IV). Set-up: expressed in transfected cells; host or cells: CHO (hCB2-CHO, generated in-house). Particulars: 1 h, read-out: % Displacement Protocol IV. As for the experimental part:
IV. Protocol for In Vitro Assay Using hCB2-CHO Membranes:
In this assay, [^3H]-CP-55,940 was used as the radioligand to bind human CB2 receptor expressed on the membranes from CHO cells (hCB2-CHO cell line was generated in-house) which can be displaced by unlabeled ligands having affinity to the CB2 receptor.
The assay was performed according to the modified method of Ross et al., 1999 (Br. J. Pharmacol. 128, 735-743). The reaction was set up in a total volume of 200 μl in PEI (0.2%) precoated Millipore GFB filter plates. 1 mM stocks of test compounds were prepared in DMSO and tested at a final concentration of 300 nM. The non-specific binding was determined by 0.5 μM CP-55, 940. The total reaction mixture contained Tris-BSA buffer (50 mM Tris, 5 mM MgCl2, 1 mM EDTA, pH 7.4 with 0.1% BSA), unlabelled CP-55, 940 (0.5 μM) or test samples, [^3H]-CP-55, 940 (0.75 nM) and 25-50 μg of human CB2 receptor preparation. The assay mixture (with or without the test compound) was incubated at 30° C. for 1 hour. The reaction was stopped by rapid filtration under vacuum and the radioactivity on the filters was measured by liquid scintillation counting.
The percent (%) displacement by a test ligand was calculated by comparing the specific bound values.

[2] abbreviates: hCB2-CHO membranes, [3H]-CP-55,940 displacement.

Chain of hCB2 (P34972 whole entry): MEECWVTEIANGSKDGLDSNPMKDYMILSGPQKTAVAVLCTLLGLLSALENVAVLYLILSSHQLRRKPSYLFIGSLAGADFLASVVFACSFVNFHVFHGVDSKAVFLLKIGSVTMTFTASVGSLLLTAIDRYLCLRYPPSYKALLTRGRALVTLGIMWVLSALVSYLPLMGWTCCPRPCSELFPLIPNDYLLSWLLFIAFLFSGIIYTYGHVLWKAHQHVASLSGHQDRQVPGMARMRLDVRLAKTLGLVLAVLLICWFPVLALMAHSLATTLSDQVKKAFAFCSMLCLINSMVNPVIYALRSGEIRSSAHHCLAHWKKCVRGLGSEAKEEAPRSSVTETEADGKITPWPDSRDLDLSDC

Regarding `CCC(C)(C)NC(=O)c1nn(-c2ccc(F)cc2F)c2c1C1CCC2CC1` [Example 802, N(5)-(tert-Pentyl)-3-(2,4-difluorophenyl)-3,4-diazatricyclo[5.2.2.0^2,6]undeca-2(6),4-diene-5-carboxamide], the melting point (as a rule, the temperature, or range, at which the solid turns liquid) fell in the range of 102 to 105 °C. For the same molecule, the inhibition at 0.3 µM in data set [1] came out at 100%.

Molecule `CC(C)(NC(=O)c1nn(-c2ccc(F)cc2F)c2c1C1CC3CC(C1)CC2C3)c1ccccc1` [Example 148, N(7)-(1-Methyl-1-phenylethyl)-5-(2,4-difluorophenyl)-5,6-diazatetracyclo[7.3.1.1^3,11.0^4,8]tetradeca-4(8),6-diene-7-carboxamide] displayed a melting point of 150 to 152 °C. The inhibition at 0.3 µM in data set [1] was 79.2%.

Turning to `CC(C)(NC(=O)c1nn(-c2ccc(F)cc2)c2c1C1CCC2C1)c1ccccc1` (centres unmarked) [Example 282, N5-(1-Methyl-1-phenylethyl)-3-(4-fluorophenyl)-3,4-diazatricyclo[5.2.1.0^2,6]deca-2(6),4-diene-5-carboxamide], the melting point is 119 to 122 °C. Besides, in data set [1], the inhibition at 0.3 µM was 92.3%.

Molecule `CC[C@H](NC(=O)c1nn(-c2ccc(F)cc2F)c2c1C1CCC2C1)c1ccccc1` (stereo partly drawn) [Example 300, N5-[(1S)-1-Phenylpropyl]-3-(2,4-difluorophenyl)-3,4-diazatricyclo[5.2.1.0^2,6]deca-2(6),4-diene-5-carboxamide] gave a melting point of 100 to 103 °C. Besides, in data set [1], the inhibition at 0.3 µM stood at 90.1%.

The molecule `CC12CCC(C1)C(C)(C)C2NC(=O)c1nn(-c2ccc(F)cc2F)c2c1C1CCC2C1` (centres unmarked) [Example 296, N(3)-(1,3,3-Trimethylbicyclo[2.2.1]hept-2-yl)-1-(2,4-difluorophenyl)-4,5,6,7-tetrahydro-1H-4,7-methano-indazole-3-carboxamide] registered a melting point of 114 to 117 °C. Also, the inhibition at 0.3 µM in data set [1] turned out to be 95.9%.

`O=C(NCC1CCCO1)c1nn(-c2ccc(F)cc2F)c2c1C1CCC2C1` (centres unmarked) [Example 322, N(3)-(Tetrahydro-2-furanylmethyl)-1-(2,4-difluorophenyl)-4,5,6,7-tetrahydro-1H-4,7-methano-indazole-3-carboxamide] gave a melting point of 91 to 93 °C. Moreover, the inhibition at 0.3 µM in data set [1] turned out to be 43.4%.

The molecule `O=C(NCc1ccncc1)c1nn(-c2ccc(Cl)cc2)c2c1C1CC3CC(C1)CC2C3` [Example 105, N(7)-(4-Pyridylmethyl)-5-(4-chlorophenyl)-5,6-diazatetracyclo[7.3.1.1^3,11.0^4,8]tetradeca-4(8),6-diene-7-carboxamide] displayed a melting point of 167 to 168 °C. In addition, the inhibition at 0.3 µM in data set [1] (setting [2]) came out at 22.4%.

Consider `O=C(NC12CC3CC(CC(O)(C3)C1)C2)c1nn(-c2ccc(F)cc2F)c2c1C1CC3CC(C1)CC2C3` [Example 156, N7-(3-Hydroxyadamantan-1-yl)-5-(2,4-difluorophenyl)-5,6-diazatetracyclo[7.3.1.1^3,11.0^4,8]tetradeca-4(8),6-diene-7-carboxamide], for which the melting point fell in the range of 240 to 243 °C. The inhibition at 0.3 µM in data set [1] came to 89.3%.

Molecule `COc1ccc(-n2nc(C(=O)NN3CCCCC3)c3c2C2CC4CC(CC3C4)C2)cc1` [Example 163, N(7)-Piperidino-5-(4-methoxyphenyl)-5,6-diazatetracyclo[7.3.1.1^3,11.0^4,8]tetradeca-4(8),6-diene-7-carboxamide] had a melting point of 156 °C. The inhibition at 0.3 µM in data set [1] (setting [2]) was found to be 14.5%.

With `C[C@@H](NC(=O)c1nn(-c2ccc(F)cc2F)c2c1C1CC3CC(C1)CC2C3)c1ccccc1` [Example 147, N(7)-(R-1-phenylethyl)-5-(2,4-difluorophenyl)-5,6-diazatetracyclo[7.3.1.1^3,11.0^4,8]tetradeca-4(8),6-diene-7-carboxamide], the melting point is 123 to 128 °C. The inhibition at 0.3 µM in data set [1] turned out to be 37.1%.
